What was measured:
[1] = system: dog papillary muscle; experiment: cross-circulated preparation of isolated dog papillary muscle; details: Canis lupus familiaris, read-out: Contractile force of dog papillary muscle Increasing rate (%); for activation at 0.03 mg: Dosage 30 µg i.a.; for activation at 0.1 mg: Dosage 100 µg i.a.
Procedure: 1) Method of using cross-circulated preparation of isolated dog papillary muscle
Cross-circulated preparations of isolated dog papillary muscle were prepared according to the method of Endoh & Hashimoto, American J. Physiol., vol. 218, p.1459-1463, 1970, United States. The compound dissolved in solvent was injected to the artery close to the preparation, and the action of the compound on the contractile force of papillary muscle was determined.

[2] = system: guinea pig left atrium; experiment: isolated guinea pig left atrium, isometric contraction in organ bath; details: Cavia porcellus, read-out: Contractile foece of guinea pig left atrium Increase rate (%); for activation at 30 µg/mL: Dosage 3x10^-5 g/ml; for activation at 10 µg/mL: Dosage 10^-5 g/ml
Procedure: 2) Method of using isolated guinea pig left atrium
Male guinea pigs weighing 200 - 300 g were killed by hitting their back of the heat and their left atria were immediately isolated. The left atrium was fixed to the bottom of an organ bath filled with 30 ml of Klebs-Henseleit's solution maintained at 35 °C. A mixed gas comprising 95 % of 02 and 5 % of C02 was passed through the Klebs-Henseleit's solution in the organ bath. The auricle of the left atrium was connected to a transducer with a thread to measure the isometric contraction. The atrium was applied with 0.5 g of resting tension. The atrium was electrically driven by square wave of 1 millisecond duration at a voltage of the order of 1.5 times of the threshold voltage and at a rate of twice per second by means of two platinum electrodes. The preparation was stabilized for 30 minutes, then the compound dissolved in solvent was added to the organ bath, and the reaction was determined.

[3] = system: anesthetized dog; experiment: anesthetized dog, cardiac contractility and cardiac output; format: in vivo; details: for Co Increasing rate (%): blood flow rate in the aorta as index of cardiac output; for Cont Increasing rate (%): contractile force of the right cardiac ventricle muscle
Procedure: 3) Method of using anesthetized dog
Male or female mongrel dogs weighing 8 - 15 kg were used. The dogs were anesthetized with sodium pentobarbital at the dose of 30 mg/kg (intravenous injection) and then applied with artificial respiration. They were thoracotomised at the intercostal portion between forth and fifith costa, and the fifth costa was excised. Then the pericardium was cut to expose the heart. A probe of an electromagnetic flow meter was attached to the aorta to measure the blood flow rate in the aorta, which was used as an approximate index of the cardiac output (CO). A polyethylene cannula was inserted into the left cardiac ventricle to measure the intraventricular pressure, thereby the variation rate of the intraventricular pressure of the left cardiac ventricle (dp/dt) was electrically determined. A strain gauge was attached to the wall of the right cardiac ventricle to measure the contractile force of the right cardiac ventricle muscle (Cont). The systemic blood pressure was measured at the left femoral artery. The heart rate was measured by means- of a cardiotachometer. The compound dissolved in solvent was applied intravenously from the left femoral vein.

Row | Structure (SMILES) | activation at 0.03 mg [1] [%] | activation at 0.1 mg [1] [%] | activation at 30 µg/mL [2] [%] | activation at 10 µg/mL [2] [%] | dp/dtmax Increasing rate (%) ([3]; Dosage 30 µg/kg i.v.) | Co Increasing rate (%) ([3]; Dosage 30 µg/kg i.v.) | Cont Increasing rate (%) ([3]; Dosage 30 µg/kg i.v.) | dp/dtmax Increasing rate (%) ([3]; Dosage 100 µg/kg i.v.) | Co Increasing rate (%) ([3]; Dosage 100 µg/kg i.v.) | Cont Increasing rate (%) ([3]; Dosage 100 µg/kg i.v.)
1 | COc1cc(C2=NNC(=O)CC2)ccc1OCC(=O)N1CCN(Cc2ccc(OC)c(OC)c2OC)CC1 [Compound of Example 1] | 10 | 20.1 | 44.8 | 35.5 | 12.9 | 5.5 | 7.9 | 27.1 | 13.3 | 21.5
2 | COc1ccc(CN2CCN(C(=O)COc3ccc(C4=NNC(=O)CC4)cc3)CC2)cc1 [Compound of Example 3] | 13.2 | 17 | 28 | 32 | 18.0 | 17.4 | 12.2 | 49.8 | 28.9 | 29.1
3 | COc1ccc(CN2CCN(C(=O)COc3ccc(C4=NNC(=O)CC4)cc3)CC2)c(OC)c1OC [Compound of Example 2] | 11.4 | 12.5 | 22.6 | 6.4 | 12.2 | 4.8 | 10.1 | 34.3 | 16.3 | 22.8
4 | COc1ccc(N2CCN(C(=O)C(C)Oc3ccc(C4=NNC(=O)CC4)cc3OC)CC2)cc1 (stereo not shown) [Compound of Example 4] | 7.5 | 24.8 | 35.9 | 23.8 | 9.9 | 8.7 | 3.6 | 19.2 | 19.6 | 10.0

— EP0252422A2, “Pyridazinone derivatives and salts thereof” (MITSUBISHI KASEI CORPORATION, priority 1986, dated 1988)
